Measured values taken from ChEMBL document CHEMBL1201862, “PubChem BioAssay data set” (2004).
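Cultured in 96-well plates, cells were exposed to test compound for 48 hours across five concentrations. GI50 is the concentration that inhibits growth by half.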 Activity calls are given as the source filed them. Rule as the data show it: active = GI50 up to about 1.1 µM and inactive = higher.

Columns and labels:
Assay in all cases: NCI anticancer screen, dose series, 48 h
[1] = test system: OVCAR-5
[2] = test system: SNB-19
[3] = test system: 786-0
[4] = test system: NCI-H460
[5] = test system: OVCAR-3
[6] = test system: K562
[7] = test system: SR
[8] = test system: SK-MEL-28
[9] = test system: CAKI-1
[10] = test system: OVCAR-8
[11] = test system: NCI-H522
[12] = test system: HL-60
[13] = test system: COLO 205
[14] = test system: NCI-H226
[15] = test system: U-251
[16] = test system: A549
[17] = test system: TK-10
[18] = test system: A498
[19] = test system: MDA-MB-231

Measured: GI50

O=C1c2ccccc2C(=O)C1C(c1ccc([N+](=O)[O-])cc1)C1C(=O)c2ccccc2C1=O
inactive: [1] > 100 µM | [2] > 100 µM | [3] > 100 µM | [4] > 100 µM | [5] 18.5 µM | [6] > 100 µM | [7] 28.2 µM | [8] 29 µM | [9] 28.8 µM | [10] 25.5 µM | [11] 63.4 µM | [12] 58.3 µM | [13] > 100 µM | [14] 59.7 µM | [15] 30.3 µM | [16] > 100 µM | [17] > 100 µM

CC1=C(C)C(=O)OC(C(C)(O)C2(O)CCC3(O)C4CC(Cl)C5(O)C(O)C=CC(=O)C5(C)C4CCC32C)C1 (configuration not stated)
inactive: [1] > 100 µM | [2] 49.8 µM | [18] 52.6 µM | [3] 32.3 µM | [4] 36.1 µM | [5] 52.8 µM | [6] 12.3 µM | [7] 8.51 µM | [8] 49 µM | [9] 12.2 µM | [10] 25.1 µM | [11] 10.8 µM | [12] 4.15 µM | [13] 12.9 µM | [14] > 100 µM | [19] 30.2 µM | [15] 37.5 µM | [16] 69.3 µM | [17] 34.3 µM

CCOC(=O)CC[C@H](NC(=O)c1nc[nH]c1[N+](=O)[O-])C(=O)OCC
inactive: [2] > 100 µM | [18] > 100 µM | [3] > 100 µM | [4] > 100 µM | [5] > 100 µM | [6] > 100 µM | [7] 35.7 µM | [8] > 100 µM | [10] > 100 µM | [11] > 100 µM | [12] > 100 µM | [13] > 100 µM | [14] > 100 µM | [15] > 100 µM | [16] > 100 µM | [17] > 100 µM

CCCCCCCCCCCC(=O)OCC1OC(n2cc(F)c(=O)[nH]c2=O)C(N)C(OC(=O)CCCCCCCCCCC)C1O (configuration not stated)
inactive: [2] > 100 µM | [18] > 100 µM | [3] > 100 µM | [4] > 100 µM | [5] 47.5 µM | [6] 30.2 µM | [7] 34.4 µM | [8] > 100 µM | [9] > 100 µM | [10] 93.1 µM | [11] 31.6 µM | [12] 29.6 µM | [13] 68.4 µM | [15] > 100 µM | [16] > 100 µM | [17] > 100 µM

O=C(CCc1nnc(S)[nH]1)Nc1ccccc1Cl
inactive: [1] > 100 µM | [2] > 100 µM | [18] > 100 µM | [3] > 100 µM | [4] > 100 µM | [5] > 100 µM | [6] > 100 µM | [7] > 100 µM | [8] > 100 µM | [9] > 100 µM | [10] > 100 µM | [11] > 100 µM | [12] > 100 µM | [13] > 100 µM | [14] > 100 µM | [15] > 100 µM | [16] > 100 µM | [17] > 100 µM

N#C/C(c1nc2ccccc2[nH]1)=c1\s/c(=C/c2ccc(Cl)cc2)c(=O)n1-c1ccccc1
inactive: [1] > 100 µM | [2] > 100 µM | [18] > 100 µM | [3] > 100 µM | [4] > 100 µM | [5] > 100 µM | [6] > 100 µM | [7] > 100 µM | [8] > 100 µM | [9] > 100 µM | [10] > 100 µM | [11] > 100 µM | [12] > 100 µM | [13] > 100 µM | [14] > 100 µM | [15] > 100 µM | [16] > 100 µM | [17] > 100 µM

O=c1[nH]cc(COCCCO)c(=O)[nH]1
inactive: [1] > 100 µM | [2] > 100 µM | [18] > 100 µM | [3] > 100 µM | [4] > 100 µM | [5] > 100 µM | [6] > 100 µM | [7] > 100 µM | [8] > 100 µM | [9] > 100 µM | [10] > 100 µM | [11] > 100 µM | [12] > 100 µM | [13] > 100 µM | [14] > 100 µM | [15] > 100 µM | [16] > 100 µM | [17] > 100 µM

c1ccc2c3c([nH]c2c1)C1(CCCCC1)c1c([nH]c2ccccc12)C31CCCCC1
inactive: [1] > 100 µM | [2] 54.5 µM | [18] 24.2 µM | [3] 15.1 µM | [4] 34.7 µM | [5] > 100 µM | [6] 35.6 µM | [7] 22.1 µM | [8] 37.1 µM | [9] 38.6 µM | [10] 17.8 µM | [11] 30 µM | [12] > 100 µM | [13] 37.9 µM | [14] 27.5 µM | [15] 30.2 µM | [16] 39.3 µM | [17] 30.9 µM

O=[N+]([O-])c1ccc(N2C[N+](c3ccccc3)=NC(c3ccccc3)=N2)cc1
inactive: [1] 73.1 µM | [2] 38.6 µM | [3] 59.7 µM | [4] 39.4 µM | [5] 32.2 µM | [6] 27 µM | [7] 37.8 µM | [8] > 100 µM | [9] 63 µM | [10] 43.9 µM | [11] 25.6 µM | [12] 38.2 µM | [13] 50.5 µM | [14] > 100 µM | [15] 32.2 µM | [16] 34.6 µM | [17] 40.7 µM

COC(=O)C(C(=O)c1ccccc1)C(C(=O)C(=O)Nc1ccc(OC)cc1OC)C(=O)C(=O)c1ccc(C)cc1 (configuration not stated)
inactive: [1] > 100 µM | [2] > 100 µM | [18] > 100 µM | [3] > 100 µM | [4] > 100 µM | [5] > 100 µM | [6] > 100 µM | [7] > 100 µM | [8] > 100 µM | [9] > 100 µM | [10] > 100 µM | [11] > 100 µM | [12] > 100 µM | [13] > 100 µM | [14] > 100 µM | [15] > 100 µM | [16] > 100 µM | [17] > 100 µM

CC1CC[C@]2(C(=O)O)CCC3(C)C(=CCC4[C@@]5(C)CC[C@H](OS(=O)(=O)c6ccccc6)C(C)(C)C5CC[C@]43C)[C@@H]2[C@H]1C (some centres not stated)
inactive: [1] > 100 µM | [2] > 100 µM | [18] > 100 µM | [3] > 100 µM | [4] > 100 µM | [5] > 100 µM | [6] 51.4 µM | [7] 36.8 µM | [8] > 100 µM | [9] > 100 µM | [10] > 100 µM | [11] 53.8 µM | [13] 38.1 µM | [14] 62.2 µM | [15] 83.2 µM | [16] 36.6 µM | [17] > 100 µM
